Legend:
[1] = test system: pulmonary eosinophil infiltration; assay: Inhibition of late-phase eosinophilia 24 h after inhalational ovalbumin challenge in actively sensitized guinea-pigs; type: in vivo; conditions: BAL 24 h after OVA challenge
Experimental: The inhibition of pulmonary eosinophil infiltration by the substances is tested in an in-vivo test on male Dunkin-Hartley guinea-pigs (200-250 g) sensitized against ovalbumin (OVA). The sensitization is carried out by means of two intraperitoneal injections of a suspension of 20 μg of OVA together with 20 mg of aluminium hydroxide as an adjuvant in 0.5 ml of physiological saline solution per animal on two successive days. 14 days after the second injection, the animals are pretreated with mepyramine maleate (10 mg/kg i.p.) in order to protect them from anaphylactic death. 30 minutes later, the animals are exposed for 30 sec in a plastic box to an OVA aerosol (0.5 mg/ml) which is generated by a nebulizer driven by compressed air (19.6 kPa) (allergen challenge). Control animals are nebulized with physiological saline solution. 24 hours after the challenge, the animals are anaesthetized with an overdose of ethylurethane (1.5 g/kg of body weight i.p.) and a bronchoalveolar lavage (BAL) is carried out with 2×5 ml of physiological saline solution. The BAL fluid is collected, centrifuged at 300 rpm for 10 min and the cell pellet is then resuspended in 1 ml of physiological saline solution. The eosinophils are stained using the Becton-Dickinson test kit (N. 5877) for eosinophils and counted in a Neubauer chamber. 2 control groups (nebulization with physiological saline solution and nebulization with OVA solution) are additionally included in each test.
The percentage inhibition of the eosinophilia of the test group treated with substance is calculated according to the following formula:
(A-C)-(B-C)/(A-C)×100=% inhibition
The test substances are administered intraperitoneally or orally as a suspension in 10% polyethylene glycol 300 and 0.5% strength 5-hydroxyethylcellulose 2 hours before allergen challenge. The control groups are treated with the vehicle according to the administration form of the test substance. The number of animals per control and test group is 3-10.

human cyclophilin B = human cyclophilin B (Homo sapiens, UniProt P23284); assay: Peptidylprolyl isomerase (PPIase) activity inhibition assay; type: biochemical; conditions: Cyp B, test peptide Suc-Ala-Ala-Pro-Phe-Nan
Sequence of human cyclophilin B (P23284 34-216): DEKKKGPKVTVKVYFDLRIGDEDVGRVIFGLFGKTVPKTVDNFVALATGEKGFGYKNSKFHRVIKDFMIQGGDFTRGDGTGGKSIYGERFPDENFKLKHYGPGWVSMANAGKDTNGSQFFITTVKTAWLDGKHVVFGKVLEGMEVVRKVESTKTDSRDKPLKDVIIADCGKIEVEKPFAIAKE
Experimental: To determine the anti-asthmatic, anti-allergic, anti-inflammatory and/or immunomodulating properties of the compounds according to the invention, in-vitro and in-vivo investigations were carried out. […] For the initial screening (10 μmol/l), the inhibition of human cyclophilin B in the PPIase test is determined.
The PPIase activity is tested according to a globally customary enzyme test: G. Fischer, H. Bang, C. Mech, Biomed. Biochim. Acta 43 1101-1111; G. Fischer, H. Bang, A. Schellenberger, Biochim. Biophys. Acta 791 (1984), 87-97; D. H. Rich et al., J. Med. Chem. 38 (1995), 4164-4170.
The compounds of the general formula I according to the invention are preincubated at 4° C. for 15 minutes together with 10 nmol of Cyp B. The enzyme reaction is started using the test peptide Suc-Ala-Ala-Pro-Phe-Nan after addition of chymotrypsin and HEPES buffer. The extinction change at 390 nm is then monitored and evaluated. The photometrically determined extinction change results from two sub-reactions: a) the rapid chymotryptic cleavage of the trans-peptide; b) the non-enzymatic cis-trans isomerization, which is catalysed by cyclophilins.

| SMILES | Eosinophil million/animal x ± s, B = group treated with substance with OVA challenge ([1]; 10 mg/kg i.p. -2 h) [million/animal] | Inhibition [%] of eosinophilia ([1]; 10 mg/kg i.p. -2 h) [%] | Eosinophil million/animal x ± s, B = group treated with substance with OVA challenge ([1]; 30 mg/kg p.o. -2 h) [million/animal] | Inhibition [%] of eosinophilia ([1]; 30 mg/kg p.o. -2 h) [%] | inhibition at 10 µM (human cyclophilin B) [%] |
| --- | --- | --- | --- | --- | --- |
| COc1ccc2c(c1)c(OCCOc1c(F)cc(F)cc1Br)nn2S(=O)(=O)c1ccc(C)cc1 [Example 1, 3-[2-(2-Bromo-4,6-difluorophenoxy)ethoxy]-5-methoxy-1-(toluene-4-sulphonyl)-1H-indazole] | 1.23 ± 0.38 | 61 | 1.75 ± 1.86 | 65 | 95 |
| COc1ccc2c(c1)c(OCCOc1ccc(Cl)cc1)nn2S(=O)(=O)c1ccc(Cl)cc1 [Example 7] | – | – | – | – | 70 |
| COc1ccc2c(c1)c(OCCOc1ccc(Cl)cc1)nn2S(=O)(=O)c1ccc(F)cc1 [Example 8] | 1.84 ± 0.94 | 41 | – | – | – |
| COc1ccc(S(=O)(=O)n2nc(OCCOc3ccc(Cl)cc3)c3cc(OC)ccc32)cc1 [Example 9] | – | – | – | – | 90 |
| COc1ccc2c(c1)c(OCc1noc(-c3cccc(C(F)(F)F)c3)n1)nn2S(=O)(=O)c1ccc(C)cc1 [Example 32, 5-Methoxy-1-(toluene-4-sulphonyl)-3-[5-(3-trifluoromethylphenyl)-1,2,4-oxadiazol-3-ylmethoxy]-1H-indazole] | 0.86 ± 0.49 | 85 | – | – | 70 |
| COc1ccc2c(c1)c(OCc1ccc(Cl)cc1[N+](=O)[O-])nn2S(=O)(=O)c1ccc(C)cc1 [Example 41] | – | – | – | – | 71 |
| COc1ccc2c(c1)c(OCC(=O)Nc1ccc(F)cc1F)nn2S(=O)(=O)c1ccc(C)cc1 [Example 66, N-(2,4-Difluorophenyl)-2-[5-methoxy-1-(toluene-4-sulphonyl)-1H-indazol-3-yloxy]acetamide] | – | – | – | – | 40 |
| COc1ccc2c(c1)c(OCC(=O)Nc1ccc(Cl)cc1Cl)nn2S(=O)(=O)c1ccc(C)cc1 [Example 73] | – | – | – | – | 67 |
| COc1ccc2c(c1)c(OCc1c(Cl)cccc1Cl)nn2Cc1cccc([N+](=O)[O-])c1 [Example 84] | – | – | – | – | 90 |
| COc1ccc2c(c1)c(OCCOc1ccc([N+](=O)[O-])cc1)nn2Cc1ccc(F)cc1 [Example 91, 1-(4-Fluorobenzyl)-5-methoxy-3-[2-(4-nitrophenoxy)ethoxy]-1H-indazole] | 1.16 ± 0.65 | 71 | – | – | – |
| COc1ccc2c(c1)c(OCCOc1c(F)cc(F)cc1Br)nn2CCOc1ccc([N+](=O)[O-])cc1 [Example 99, 3-[2-(2-Bromo-4,6-difluorophenoxy)ethoxy]-5-methoxy-1-[2-(4-nitrophenoxy)ethyl]-1H-indazole] | 1.35 ± 0.67 | 46 | 1.33 ± 0.23 | 33 | – |
| COc1ccc2c(c1)c(OCc1cc(C(C)=O)ccc1OC)nn2CCOc1ccc([N+](=O)[O-])cc1 [Example 107] | 1.44 ± 0.92 | 68 | – | – | – |
| O=C(Nc1ccc2c(c1)c(OCCOc1ccc([N+](=O)[O-])cc1)nn2Cc1ccc(Cl)cc1Cl)Nc1cccc2ccccc12 [Example 114, 1-{1-(2,4-Dichlorobenzyl)-3-[2-(4-nitrophenoxy)ethoxy]-1H-indazol-5-yl}-3-naphthalen-1-ylurea] | 1.19 ± 0.43 | 58 | – | – | 100 |
| O=C(Nc1ccc2c(c1)c(OCCOc1ccc([N+](=O)[O-])cc1)nn2Cc1ccc(Cl)c(Cl)c1)Nc1cccc2ccccc12 [Example 116] | – | – | – | – | 90 |

Source: US6166023A, “1,5- and 3-O-substituted 1H-indazoles having anti-asthmatic, anti-allergic, anti-inflammatory, immunomodulating and neuroprotective action, process for their preparation and their use as medicaments” (Arzneimittelwerk Dresden GmbH, priority 1998, dated 2000)
